Columns and labels:
[1] = test system: antibodies in sera from SARS patients (sera 1a, 1b, 2, 6, 37, 62, London, SARS-yellow, SARS-green); assay type: binding, human; set-up: Binding of serum 6 to linear peptides of protein X1 of SARS-CoV Urbani / Binding of serum 37 to linear peptides of protein X1 of SARS-CoV Urbani / Binding of serum 6 to looped/cyclic peptide (PEPSCAN-ELISA) / Binding of serum 37 to looped/cyclic peptide (PEPSCAN-ELISA) / Binding of serum 37 to looped/cyclic peptides of protein X1 of SARS-CoV Urbani / Binding of serum 6 to linear peptides of protein X2 / Binding of serum 37 to linear peptides of protein X2 / Binding of serum 37 to looped/cyclic peptides of protein X2 of SARS-CoV Urbani / Binding of serum 6 to linear peptides of protein M of SARS-CoV Urbani / Binding of serum 37 to linear peptides of protein M of SARS-CoV Urbani / Binding of serum 6 to looped/cyclic peptides of protein M of SARS-CoV Urbani / Binding of serum 37 to looped/cyclic peptides of protein M of SARS-CoV Urbani / Binding of serum 6 to linear peptides of protein X3 of SARS-CoV Urbani / Binding of serum 37 to linear peptides of protein X3 of SARS-CoV Urbani / Binding of serum 37 to looped/cyclic peptides of protein X3 of SARS-CoV Urbani / Binding of serum 6 to linear peptides of protein X4 of SARS-CoV Urbani / Binding of serum 37 to linear peptides of protein X4 of SARS-CoV Urbani / Binding of serum 37 to looped/cyclic peptides of protein X4 of SARS-CoV Urbani / Binding of serum 6 to linear peptides of protein X5 of SARS-CoV Urbani / Binding of serum 37 to linear peptides of protein X5 of SARS-CoV Urbani / Binding of serum 37 to looped/cyclic peptides of protein X5 of SARS-CoV Urbani / Binding of serum 6 to linear peptides of protein N of SARS-CoV Urbani / Binding of serum 37 to linear peptides of protein N of SARS-CoV Urbani / Binding of serum 6 to linear peptide (PEPSCAN-ELISA) / Binding of serum 1a to looped/cyclic peptides of protein N of SARS-CoV Urbani / Binding of serum 1b to looped/cyclic peptides of protein N of SARS-CoV Urbani / Binding of serum 2 to looped/cyclic peptides of protein N of SARS-CoV Urbani / Binding of serum 6 to looped/cyclic peptides of protein N of SARS-CoV Urbani / Binding of serum 37 to looped/cyclic peptides of protein N of SARS-CoV Urbani / Binding of serum 62 to looped/cyclic peptides of protein N of SARS-CoV Urbani / Binding of serum London to looped/cyclic peptides of protein N of SARS-CoV Urbani / Binding of serum SARS-green to looped/cyclic peptides of protein N of SARS-CoV Urbani: unit not given here
[2] = test system: control sera (pooled serum of ten healthy LUMC hospital workers; commercial negative donor pooled serum from the Dutch bloodbank); assay type: binding, human; set-up: Binding of Control serum LUMC to linear peptides / Binding of Control serum Blood-bank to linear peptides / Binding of Control serum LUMC to looped peptides / Binding of Control Serum Blood-Bank to Looped peptides / Binding of Control serum LUMC to linear peptides of the protein M of SARS-CoV Urbani / Binding of Control serum Blood-bank to linear peptides of the protein M of SARS-CoV Urbani / Binding of Control serum LUMC to looped peptides of the protein M of SARS-CoV Urbani / Binding of Control Serum Blood-Bank to Looped peptides of the protein M of SARS-CoV Urbani: unit not given here
[3] = test system: rabbit serum obtained by immunizing a rabbit with the SARS-CoV strain Frankfurt 1; assay type: binding; set-up: Binding of a rabbit serum to linear peptides / Binding of a rabbit serum to looped peptides / Rabbit serum linear peptides / Rabbit serum looped peptides / Binding of a rabbit serum to linear peptides of protein N of SARS-CoV Urbani (Rabbit serum linear peptides) / Binding of a rabbit serum to looped/cyclic peptides of protein N of SARS-CoV Urbani (Rabbit serum looped peptides): unit not given here

RMCKYTQSTALQELL
0.5: Binding of serum 2 to linear peptides of protein X2 [1] | Binding of serum London to linear peptides of protein X2 [1]
0.3: Binding of serum 6 to looped/cyclic peptides of protein X2 of SARS-CoV Urbani [1] | Binding of serum SARS-yellow to looped/cyclic peptides of protein X2 of SARS-CoV Urbani [1]
0.6: Binding of serum SARS-green to linear peptides of protein X2 [1] | Binding of serum SARS-green to looped/cyclic peptides of protein X2 of SARS-CoV Urbani [1] | Binding of serum SARS-yellow to linear peptides of protein X2 [1] | Binding of Control serum LUMC to looped peptides [2]
0.8: Binding of serum 1a to linear peptides of protein X2 [1] | Binding of serum 62 to linear peptides of protein X2 [1] | Binding of Control serum Blood-bank to linear peptides [2]
0.4: Binding of serum 2 to looped/cyclic peptides of protein X2 of SARS-CoV Urbani [1] | Binding of serum 6 to linear peptides of protein X2 [1] | Binding of serum 37 to looped/cyclic peptides of protein X2 of SARS-CoV Urbani [1] | Binding of a rabbit serum to linear peptides [3] | Binding of a rabbit serum to looped peptides [3]
0.7: Binding of serum 1a to looped/cyclic peptides of protein X2 of SARS-CoV Urbani [1] | Binding of serum 1b to linear peptides of protein X2 [1] | Binding of serum 1b to looped/cyclic peptides of protein X2 of SARS-CoV Urbani [1] | Binding of serum 37 to linear peptides of protein X2 [1] | Binding of serum 62 to looped/cyclic peptides of protein X2 of SARS-CoV Urbani [1] | Binding of Control Serum Blood-Bank to Looped peptides [2] | Binding of Control serum LUMC to linear peptides [2]
0.2: Binding of serum London to looped/cyclic peptides of protein X2 of SARS-CoV Urbani [1]

VYYQLESTQITTDTG
0.3: Binding of serum 62 to looped/cyclic peptides of protein X1 of SARS-CoV Urbani [1] | Binding of serum SARS-yellow to linear peptides of protein X1 of SARS-CoV Urbani [1] | Binding of Control Serum Blood-Bank to Looped peptides [2] | Binding of Control serum LUMC to looped peptides [2]
0.2: Binding of serum 1b to looped/cyclic peptides of protein X1 of SARS-CoV Urbani [1] | Binding of serum London to linear peptides of protein X1 of SARS-CoV Urbani [1] | Binding of serum London to looped/cyclic peptides of protein X1 of SARS-CoV Urbani [1] | Binding of serum SARS-green to linear peptides of protein X1 of SARS-CoV Urbani [1] | Binding of serum SARS-green to looped/cyclic peptides of protein X1 of SARS-CoV Urbani [1]
0.1: Binding of serum 2 to looped/cyclic peptides of protein X1 of SARS-CoV Urbani [1] | Binding of serum 6 to looped/cyclic peptides of protein X1 of SARS-CoV Urbani [1] | Binding of serum SARS-yellow to looped/cyclic peptides of protein X1 of SARS-CoV Urbani [1] | Binding of a rabbit serum to linear peptides [3]
0.5: Binding of serum 1b to linear peptides of protein X1 of SARS-CoV Urbani [1] | Binding of serum 62 to linear peptides of protein X1 of SARS-CoV Urbani [1] | Binding of a rabbit serum to looped peptides [3]
0.4: Binding of serum 1a to looped/cyclic peptides of protein X1 of SARS-CoV Urbani [1] | Binding of serum 2 to linear peptides of protein X1 of SARS-CoV Urbani [1] | Binding of serum 6 to linear peptides of protein X1 of SARS-CoV Urbani [1] | Binding of serum 37 to looped/cyclic peptides of protein X1 of SARS-CoV Urbani [1] | Binding of Control serum Blood-bank to linear peptides [2] | Binding of Control serum LUMC to linear peptides [2]
0.6: Binding of serum 1a to linear peptides of protein X1 of SARS-CoV Urbani [1] | Binding of serum 37 to linear peptides of protein X1 of SARS-CoV Urbani [1]

FHLVDFQVTIAEILI
0.2: Binding of serum London to looped/cyclic peptides of protein X3 of SARS-CoV Urbani [1]
0.6: Binding of serum 1b to linear peptides of protein X3 of SARS-CoV Urbani [1] | Binding of serum 62 to linear peptides of protein X3 of SARS-CoV Urbani [1] | Binding of serum London to linear peptides of protein X3 of SARS-CoV Urbani [1] | Binding of Control serum LUMC to linear peptides of the protein X3 of SARS-CoV Urbani [2]
0.5: Binding of serum 6 to looped/cyclic peptides of protein X3 of SARS-CoV Urbani [1] | Binding of serum SARS-green to linear peptides of protein X3 of SARS-CoV Urbani [1] | Rabbit serum looped peptides [3]
0.8: Binding of serum 1a to linear peptides of protein X3 of SARS-CoV Urbani [1] | Binding of serum 1a to looped/cyclic peptides of protein X3 of SARS-CoV Urbani [1] | Binding of serum 2 to looped/cyclic peptides of protein X3 of SARS-CoV Urbani [1] | Binding of serum SARS-yellow to looped/cyclic peptides of protein X3 of SARS-CoV Urbani [1] | Binding of Control serum Blood-bank to linear peptides of the protein X3 of SARS-CoV Urbani [2] | Binding of Control serum LUMC to looped peptides of the protein X3 of SARS-CoV Urbani [2]
0.9: Binding of serum SARS-yellow to linear peptides of protein X3 of SARS-CoV Urbani [1]
0.7: Binding of serum 2 to linear peptides of protein X3 of SARS-CoV Urbani [1] | Binding of serum 37 to linear peptides of protein X3 of SARS-CoV Urbani [1] | Binding of serum 37 to looped/cyclic peptides of protein X3 of SARS-CoV Urbani [1] | Binding of serum 62 to looped/cyclic peptides of protein X3 of SARS-CoV Urbani [1] | Binding of Control Serum Blood-Bank to Looped peptides of the protein X3 of SARS-CoV Urbani [2]
0.3: Binding of serum SARS-green to looped/cyclic peptides of protein X3 of SARS-CoV Urbani [1] | Rabbit serum linear peptides [3]
0.4: Binding of serum 1b to looped/cyclic peptides of protein X3 of SARS-CoV Urbani [1] | Binding of serum 6 to linear peptides of protein X3 of SARS-CoV Urbani [1]

CTPNVTINCQDPAGG
0.6: Binding of serum 1a to looped/cyclic peptides of protein X5 of SARS-CoV Urbani [1] | Binding of serum 2 to linear peptides of protein X5 of SARS-CoV Urbani [1] | Binding of serum 6 to linear peptides of protein X5 of SARS-CoV Urbani [1]
0.8: Binding of serum 1b to linear peptides of protein X5 of SARS-CoV Urbani [1] | Binding of serum 1b to looped/cyclic peptides of protein X5 of SARS-CoV Urbani [1] | Binding of serum London to linear peptides of protein X5 of SARS-CoV Urbani [1]
1.0: Binding of serum 1a to linear peptides of protein X5 of SARS-CoV Urbani [1]
0.0: Binding of serum SARS-yellow to linear peptides of protein X5 of SARS-CoV Urbani [1] | Rabbit serum looped peptides [3]
0.3: Binding of serum 2 to looped/cyclic peptides of protein X5 of SARS-CoV Urbani [1] | Binding of serum 6 to looped/cyclic peptides of protein X5 of SARS-CoV Urbani [1] | Binding of serum 62 to looped/cyclic peptides of protein X5 of SARS-CoV Urbani [1] | Binding of Control serum LUMC to linear peptides [2]
0.7: Binding of serum 37 to linear peptides of protein X5 of SARS-CoV Urbani [1] | Binding of serum 62 to linear peptides of protein X5 of SARS-CoV Urbani [1] | Binding of Control serum Blood-bank to linear peptides [2]
0.5: Binding of serum SARS-green to linear peptides of protein X5 of SARS-CoV Urbani [1]
0.2: Binding of serum London to looped/cyclic peptides of protein X5 of SARS-CoV Urbani [1]
0.4: Binding of serum 37 to looped/cyclic peptides of protein X5 of SARS-CoV Urbani [1] | Binding of serum SARS-green to looped/cyclic peptides of protein X5 of SARS-CoV Urbani [1] | Binding of serum SARS-yellow to looped/cyclic peptides of protein X5 of SARS-CoV Urbani [1] | Binding of Control Serum Blood-Bank to Looped peptides [2] | Binding of Control serum LUMC to looped peptides [2] | Rabbit serum linear peptides [3]

RQEEVQQELYSPLFL
0.6: Binding of serum 1b to linear peptides of protein X4 of SARS-CoV Urbani [1] | Binding of Control serum LUMC to linear peptides [2] | Rabbit serum looped peptides [3]
recognized in looped/cyclic form: Recognition of the peptide by sera of SARS-CoV infected individuals, and form (linear, looped/cyclic) in which it is recognized [1]
0.9: Binding of Control serum LUMC to looped peptides [2]
0.5: Binding of serum 2 to linear peptides of protein X4 of SARS-CoV Urbani [1] | Binding of serum 6 to linear peptides of protein X4 of SARS-CoV Urbani [1] | Rabbit serum linear peptides [3]
0.7: Binding of serum London to linear peptides of protein X4 of SARS-CoV Urbani [1] | Binding of serum SARS-green to linear peptides of protein X4 of SARS-CoV Urbani [1] | Binding of serum SARS-yellow to linear peptides of protein X4 of SARS-CoV Urbani [1] | Binding of Control serum Blood-bank to linear peptides [2]
0.8: Binding of serum 1a to linear peptides of protein X4 of SARS-CoV Urbani [1] | Binding of serum 37 to linear peptides of protein X4 of SARS-CoV Urbani [1] | Binding of serum 62 to linear peptides of protein X4 of SARS-CoV Urbani [1] | Binding of Control Serum Blood-Bank to Looped peptides [2]

Reference: patent US20070128217A1 (priority 2003, published 2007)
